Measurements as given in patent publication US5158946A, “Cephalosporin derivatives and pharmaceutical compositions” (Beecham Group p.l.c., priority 1989, dated 1992).
Values after ≈ are worked out from the molar mass of the structure shown. Counter-ions that a name gives are not always drawn. Like-named read-outs stand apart in the source and are kept apart here.

Experiments:
[1] = system: E. coli (NCTC 10418); experiment: In vitro antibacterial activity, MIC against E. coli (NCTC 10418); format: cell-based
[2] = system: S. aureus (Oxford); experiment: In vitro antibacterial activity, MIC against S. aureus (Oxford); format: cell-based
[3] = Escherichia coli, NCTC10418, E. coli (NCTC 10418), read-out: MIC
[4] = Staphylococcus aureus, read-out: MIC

Row | Structure (SMILES) | MIC [1, 3] [µg/mL] | MIC [2, 4] [µg/mL] | MIC ([1]; E. coli (NCTC 10418)) [µg/mL] | MIC [2] [µg/mL]
1 | CO/N=C(\C(=O)N[C@@H]1C(=O)N2C(C(=O)[O-])=C(SCC3=CC(=O)OC3)CS[C@H]12)c1csc(N)n1.[Na+] [Example 1, Sodium 7β-[2-(2-Aminothiazol-4-yl)-2-(Z)-methoxyiminoacetamido]-3-(2,5-dihydro-2-oxofuran-4-ylmethylthio)ceph-3-em-4-carboxylate] | < 0.03 | 0.25 | – | –
2 | Nc1nc(/C(=N/O)C(=O)N[C@@H]2C(=O)N3C(C(=O)O)=C(SCC4=CCOC4=O)CS[C@H]23)cs1 [Example 8, 7β-[2-(2-Aminothiazol-4-yl)-2-(Z)-hydroxyiminoacetamido]-3-(2,5-dihydro-2-oxofuran-3-ylmethylthio)ceph-3-em-4-carboxylic acid] | 0.12 (≈ 0.241 µM) | 0.25 (≈ 0.502 µM) | – | –
3 | CO/N=C(\C(=O)N[C@@H]1C(=O)N2C(C(=O)O)=C(OC3C=C(C)C(=O)O3)CS[C@H]12)c1csc(N)n1 (single isomer, unassigned) [3 Isomer (b)] | – | – | 0.12 (≈ 0.242 µM) | 4 (≈ 8.07 µM)
4 | CO/N=C(\C(=O)N[C@@H]1C(=O)N2C(C(=O)O)=C(CSc3ccoc(=O)c3)CS[C@H]12)c1csc(N)n1 [Example 15, Sodium 7β-[2-(2-Aminothiazol-4-yl)-2-(Z)-methoxyiminoacetamido]-3-(2-oxo-2H-pyran-4-ylthiomethyl)ceph-3-em-4-carboxylate] | < 0.03 | 0.25 | – | –
5 | CO/N=C(\C(=O)N[C@@H]1C(=O)N2C(C(=O)O)=C(SC3=CC(=O)OC3)CS[C@H]12)c1csc(N)n1 [Example 2, Sodium 7β-[2-(2-Aminothiazol-4-yl)-2-(Z)-methoxyiminoacetamido]-3-(2,5-dihydro-2-oxofuran-4-ylthio)ceph-3-em-4-carboxylate] | 0.12 | 1 | – | –
6 | CO/N=C(\C(=O)N[C@@H]1C(=O)N2C(C(=O)O)=C(CSc3cc(C)oc(=O)c3)CS[C@H]12)c1csc(N)n1 [Example 14, Sodium 7β-[2-(2-Aminothiazol-4-yl)-2-(Z)-methoxyiminoacetamido]-3-(6-methyl-2-oxo-2H-pyran-4-ylthiomethyl)ceph-3-em-4-carboxylate] | < 0.03 | 0.5 | – | –
7 | Cc1cc(SCC2=C(C(=O)O)N3C(=O)[C@@H](NC(=O)/C(=N\O)c4csc(N)n4)[C@H]3SC2)cc(=O)o1 [Example 17, 7β-[2-(2-Aminothiazol-4-yl)-2-(Z)-hydroxyiminoacetamido]-3-(6-methyl-2-oxo-2H-pyran-4-ylthiomethyl)ceph-3-em-4-carboxylic acid] | 0.06 (≈ 0.115 µM) | 0.25 (≈ 0.477 µM) | – | –
8 | CO/N=C(\C(=O)N[C@@H]1C(=O)N2C(C(=O)[O-])=C(SC3CCOC3=O)CS[C@H]12)c1csc(N)n1.[Na+] (stereo partly drawn) [Example 9, Sodium 7β-[2-(2-Aminothiazol-4-yl)-2-(Z)-methoxyiminoacetamido]-3-(2-oxotetrahydrofuran-3-ylthio)ceph-3-em-4-carboxylate] | 0.12 | 2 | – | –
9 | CO/N=C(\C(=O)N[C@@H]1C(=O)N2C(C(=O)O)=C(Sc3cc(C)oc(=O)c3)CS[C@H]12)c1csc(N)n1 [Example 4, Sodium 7β-[2-(2-Aminothiazol-4-yl)-2-(Z)-methoxyiminoacetamido]-3-(6-methyl-2-oxo-2H-pyran-4-ylthio)ceph-3-em-4-carboxylate] | 0.25 | 1 | – | –
10 | Nc1nc(/C(=N/O)C(=O)N[C@@H]2C(=O)N3C(C(=O)O)=C(CSC4=CC(=O)OC4)CS[C@H]23)cs1 [Example 6, 7β-[2-(2-Aminothiazol-4-yl)-2-(Z)-hydroxyiminoacetamido]-3-(2,5-dihydro-2-oxofuran-4-ylthiomethyl)ceph-3-em-4-carboxylic acid] | < 0.03 | 0.12 (≈ 0.241 µM) | – | –
11 | Nc1nc(/C(=N/OCC(=O)O)C(=O)N[C@@H]2C(=O)N3C(C(=O)O)=C(CSC4=CC(=O)OC4)CS[C@H]23)cs1 [Example 16, 7β-[2-(2-Aminothiazol-4-yl)-2-(Z)-carboxymethoxyiminoacetamido]-3-(2,5-dihydro-2-oxofuran-4-ylthiomethyl)ceph-3-em-4-carboxylic acid, disodium salt] | < 0.06 | 8 | – | –
12 | CO/N=C(\C(=O)N[C@@H]1C(=O)N2C(C(=O)[O-])=C(CSC3=CC(=O)OC3)CS[C@H]12)c1csc(N)n1.[Na+] [Example 5, Sodium 7β-[2-(2-Aminothiazol-4-yl)-2-(Z)-methoxyiminoacetamido]-3-(2,5-dihydro-2-oxofuran-4-ylthiomethyl)ceph-3-em-4-carboxylate] | < 0.03 | 0.25 | – | –
13 | CO/N=C(\C(=O)N[C@@H]1C(=O)N2C(C(=O)[O-])=C(OCC3=CC(=O)OC3)CS[C@H]12)c1csc(N)n1.[Na+] [Example 22, Sodium 7β-[2-(2-Aminothiazol-4-yl)-2-(Z)-methoxyiminoacetamido]-3-(2,5-dihydro-2-oxofuran-4-ylmethyloxy)ceph-3-em-4-carboxylate] | 0.06 | 2 | – | –
14 | CO/N=C(\C(=O)N[C@@H]1C(=O)N2C(C(=O)[O-])=C(SCC3=CCOC3=O)CS[C@H]12)c1csc(N)n1.[Na+] [Example 7, Sodium 7β-[2-(2-Aminothiazol-4-yl)-2-(Z)-methoxyiminoacetamido]-3-(2,5-dihydro-2-oxofuran-3-ylmethylthio)ceph-3-em-4-carboxylate] | < 0.03 | 0.5 | – | –
15 | CO/N=C(\C(=O)N[C@@H]1C(=O)N2C(C(=O)O)=C(OC3C=C(C)C(=O)O3)CS[C@H]12)c1csc(N)n1 (single isomer, unassigned) [3 Isomer (a)] | – | 4 (≈ 8.07 µM) | 0.5 (≈ 1.01 µM) | –
16 | Nc1nc(/C(=N/O)C(=O)N[C@@H]2C(=O)N3C(C(=O)O)=C(SCC4=CC(=O)OC4)CS[C@H]23)cs1 [Example 12, 7β-[2-(2-Aminothiazol-4-yl)-2-(Z)-hydroxyiminoacetamido]-3-(2,5-dihydro-2-oxofuran-4-ylmethylthio)ceph-3-em-4-carboxylic acid] | 0.12 (≈ 0.241 µM) | 0.25 (≈ 0.502 µM) | – | –
17 | CO/N=C(\C(=O)N[C@@H]1C(=O)N2C(C(=O)[O-])=C(CSC3=C(Cl)C(=O)OC3)CS[C@H]12)c1csc(N)n1.[Na+] [Example 13, Sodium 7β-[2-(2-Aminothiazol-4-yl)-2-(Z)-methoxyiminoacetamido]-3-(3-chloro-2,5-dihydro-2-oxofuran-4-ylthiomethyl)ceph-3-em-4-carboxylate] | < 0.03 | 0.25 | – | –
